Values after ≈ are worked out from the molar mass of the structure shown.
What was measured:
[1] = tested on: normal human endothelial cells; set-up: method as in PMID 30284980; details: cited from earlier work
cancer cell lines = tested on: cancer cell lines; set-up: method as in PMID 30284980; details: range depending on the cancer cell line; cited from earlier work
AGS = assay: Neutral red uptake assay, AGS; format: cell-based; details: Homo sapiens, 72 h incubation
Protocol: (§1) To all media (except for RPTEC), 2.5 µg mL^−1 amphotericin B, 100 U mL^−1 penicillin, and 100 µg mL^−1 streptomycin were added.
(§2) The cells were put in 96-well plates (1 × 10^5 cells per mL) of appropriate culture medium (100 µL per well). Before a general experiment, cells were attached for 24 h and then treated with various concentrations (500, 250, 100, and 10 µM) of pyrimidine derivatives and subsequently grown in 200 µL medium volume. […] The neutral red uptake assay was performed according to Repetto et al.. This method uses the ability of the living cells to accumulate dye in their lysosomes. […] Finally, the absorbance was measured at 540 nm using a Thermo Scientific™ Multiskan™ GO Microplate Spectrophotometer (Thermo Fisher).
(§3) The viability tests were conducted in quadruple wells (n = 4) for each condition. Values are presented as mean ± standard deviation (SD). Significant differences were calculated using one-way ANOVA, followed by post hoc comparison, and the half-maximal inhibitory concentration (IC50) was obtained by nonlinear regression using GraphPad Prism 9.1 for Windows, GraphPad Software, La Jolla, California, USA, www.graphpad.com.

HepaRG = assay: Neutral red uptake assay, HepaRG; format: cell-based, human; details: 72 h incubation
Protocol: as §1, §2, §3

HeLa = assay: Neutral red uptake assay, HeLa; format: cell-based; details: Homo sapiens, 72 h incubation
Protocol: as §1, §2, §3

Caco-2 = assay: Neutral red uptake assay, Caco-2; format: cell-based; details: Homo sapiens, 72 h incubation
Protocol: as §1, §2
The viability tests were conducted in quadruple wells (n = 4) for each condition. Values are presented as mean ± standard deviation (SD). Significant differences were calculated using one-way ANOVA, followed by post hoc comparison, and the half-maximal inhibitory concentration (IC50) was obtained by nonlinear regression using GraphPad Prism 9.1 for Windows, GraphPad Software, La Jolla, California, USA, www.graphpad.com. A p-value < 0.05 was considered statistically significant.

A172 = assay: Neutral red uptake assay, A172; format: cell-based; details: Homo sapiens, A 172, 72 h incubation
Protocol: as §1, §2, §3

Candida albicans = assay: Antimicrobial activity, broth microdilution MIC; format: cell-based; details: tested 256 to 0.5 µg mL^−1, 24 h, '-' not defined, no MIC in tested range, read-out: MIC C. albicans
[2] = Neutral red uptake assay, viability of normal RPTEC cells; format: cell-based; details: human, 72 h treatment, vs control with 1% DMSO = 100%, read-out: Viability of RPTEC cell line
Protocol: For cytotoxicity assays, the following cell lines were used: human renal proximal tubule epithelial cells (RPTEC-MTOX1030), epithelioid cervix carcinoma (HeLa-93021013), colon adenocarcinoma (Caco-2-86010202), hepatocarcinoma (HepaRG-MTOX1010), gastric adenocarcinoma (AGS-89090402), and glioblastoma (A172-88062428) cells were cultured in appropriate media according to the European Collection of Authenticated Cell Cultures (ECACC) recommendation. To all media (except for RPTEC), 2.5 µg mL^−1 amphotericin B, 100 U mL^−1 penicillin, and 100 µg mL^−1 streptomycin were added. In addition, the RPTEC cell line was cultured in media with 30 μg mL^−1 gentamicin and 15 ng mL^−1 amphotericin B. Cell cultures were incubated at 37 °C in a humidified atmosphere with 5% CO2 for at least three passages until performing experiments. All cell lines were grown in monolayers; thus, detachment with 0.25% trypsin solution was required for further assays.
The cells were put in 96-well plates (1 × 10^5 cells per mL) of appropriate culture medium (100 µL per well). Before a general experiment, cells were attached for 24 h and then treated with various concentrations (500, 250, 100, and 10 µM) of pyrimidine derivatives and subsequently grown in 200 µL medium volume. […]. The cells were incubated for 24, 48, and 72 h at 37 °C in a humidified 5% CO2/95% air incubator. The neutral red uptake assay was performed according to Repetto et al.. This method uses the ability of the living cells to accumulate dye in their lysosomes. Briefly, at the end of each incubation time the cells were treated with neutral red solution (40 µg mL^−1) for 2 h at 37 °C. Afterwards, the cells were washed with PBS, and the incorporated dye was solubilized with the extraction solution (50% ethanol, 49% H2O, 1% glacial acetic acid). The plates were gently shaken for 30 min at 37 °C. Finally, the absorbance was measured at 540 nm using a Thermo Scientific™ Multiskan™ GO Microplate Spectrophotometer (Thermo Fisher).
The viability tests were conducted in quadruple wells (n = 4) for each condition. Values are presented as mean ± standard deviation (SD). Significant differences were calculated using one-way ANOVA, followed by post hoc comparison, and the half-maximal inhibitory concentration (IC50) was obtained by nonlinear regression using GraphPad Prism 9.1 for Windows, GraphPad Software, La Jolla, California, USA, www.graphpad.com. A p-value < 0.05 was considered statistically significant. All results were compared with the control with 1% DMSO, which was considered to be 100%.

Enterococcus faecalis = assay: Antimicrobial activity, broth microdilution MIC; format: cell-based; details: tested 256 to 0.5 µg mL^−1, 24 h, '-' not defined, no MIC in tested range, read-out: MIC E. faecalis
Acinetobacter baumannii = assay: Antimicrobial activity, broth microdilution MIC; format: cell-based; details: tested 256 to 0.5 µg mL^−1, 24 h, '-' not defined, no MIC in tested range
[3] = tested on: methicillin-resistant Staphylococcus aureus (MRSA); assay: Antimicrobial activity, broth microdilution MIC; format: cell-based; details: tested 256 to 0.5 µg mL^−1, 24 h, '-' not defined, no MIC in tested range
Escherichia coli = assay: Antimicrobial activity, broth microdilution MIC; format: cell-based; details: tested 256 to 0.5 µg mL^−1, 24 h, '-' not defined, no MIC in tested range
Klebsiella pneumoniae = assay: Antimicrobial activity, broth microdilution MIC; format: cell-based; details: tested 256 to 0.5 µg mL^−1, 24 h, '-' not defined, no MIC in tested range, read-out: MIC K. pneumoniae
Pseudomonas aeruginosa = assay: Antimicrobial activity, broth microdilution MIC; format: cell-based; details: tested 256 to 0.5 µg mL^−1, 24 h, '-' not defined, no MIC in tested range, read-out: MIC P. aeruginosa

| Compound | IC50 (AGS) | melting point | IC50 (HepaRG; Homo sapiens, HepaRG, 72 h) | IC50 (HeLa) | IC50 (Caco-2) | IC50 (A172) | also measured |
| --- | --- | --- | --- | --- | --- | --- | --- |
| Cc1nc(-c2ccccc2)nc(SCc2ccc(Cl)cc2)c1C [4-[(4-chlorobenzyl)sulfanyl]-5,6-dimethyl-2-phenylpyrimidine] |  |  |  |  |  |  | survival of normal human endothelial cells [1]: 58% |
| Cc1nc(-c2ccccc2)nc(SCc2ccc(Cl)cc2)c1CO [5-hydroxymethyl derivative] |  |  |  |  |  |  | IC50 (cancer cell lines): 17 to 38 µM; survival of normal human endothelial cells [1]: 1% |
| Cc1nc(-c2ccccc2)nc(SCc2ccccc2)c1CO [Compound 3a, [4-(benzylsulfanyl)-6-methyl-2-phenylpyrimidin-5-yl]methanol] | 209 µM | 144 to 145 °C | 201 µM | > 250 µM | > 250 µM | > 250 µM | MIC (Candida albicans): 256 µg/mL (≈ 794 µM) |
| Cc1ccccc1CSc1nc(-c2ccccc2)nc(C)c1CO [Compound 3b, (4-methyl-6-{[(2-methylphenyl)methyl]sulfanyl}-2-phenylpyrimidin-5-yl)methanol] |  | 147 °C |  |  |  |  | viability at 72 h, 10 µM [2]: 91%; viability at 72 h, 100 µM [2]: 44%; viability at 72 h, 250 µM [2]: 46%; viability at 72 h, 500 µM [2]: 34% |
| Cc1nc(-c2ccccc2)nc(N)c1CO [Compound 3c, (4-amino-6-methyl-2-phenylpyrimidin-5-yl)methanol] | > 250 µM | 177 to 178 °C | > 250 µM | > 250 µM | > 250 µM | > 250 µM |  |
| CCNc1nc(-c2ccccc2)nc(C)c1CO [Compound 3d, [4-(ethylamino)-6-methyl-2-phenylpyrimidin-5-yl]methanol] | > 250 µM | 191 °C | > 250 µM | > 250 µM | > 250 µM | > 250 µM |  |
| CCCNc1nc(-c2ccccc2)nc(C)c1CO [Compound 3e, [4-methyl-2-phenyl-6-(propylamino)pyrimidin-5-yl]methanol] | > 250 µM | 158 to 159 °C | > 250 µM | > 250 µM | > 250 µM | > 250 µM | MIC (Enterococcus faecalis): 256 µg/mL (≈ 995 µM); MIC (Acinetobacter baumannii): 256 µg/mL (≈ 995 µM) |
| C=CCNc1nc(-c2ccccc2)nc(C)c1CO [Compound 3f, {4-methyl-2-phenyl-6-[(prop-2-en-1-yl)amino]pyrimidin-5-yl}methanol] | > 250 µM | 174 to 175 °C | > 250 µM | > 250 µM | > 250 µM | > 250 µM | MIC [3]: 256 µg/mL (≈ 1000 µM) |
| Cc1nc(-c2ccccc2)nc(NC(C)C)c1CO [Compound 3g, {4-methyl-2-phenyl-6-[(propan-2-yl)amino]pyrimidin-5-yl}methanol] | > 250 µM | 160 °C | 183 µM | 209 µM | > 250 µM | 147 µM | MIC (Acinetobacter baumannii): 256 µg/mL (≈ 995 µM); MIC (Escherichia coli): 128 µg/mL (≈ 497 µM) |
| Cc1nc(-c2ccccc2)nc(NC(C)(C)C)c1CO [Compound 3h, [4-(tert-butylamino)-6-methyl-2-phenylpyrimidin-5-yl]methanol] | > 250 µM | 173 to 174 °C | 132 µM | > 250 µM | > 250 µM | > 250 µM | IC50 (HepaRG): 132 µM; MIC (Acinetobacter baumannii): 256 µg/mL (≈ 943 µM) |
| Cc1nc(-c2ccccc2)nc(NCCO)c1CO [Compound 3i, 2-{[5-(hydroxymethyl)-6-methyl-2-phenylpyrimidin-4-yl]amino}ethan-1-ol] | > 250 µM | 141 °C | > 250 µM | > 250 µM | > 250 µM | > 250 µM |  |
| Cc1nc(-c2ccccc2)nc(NC2CCCCC2)c1CO [Compound 3j, [4-(cyclohexylamino)-6-methyl-2-phenylpyrimidin-5-yl]methanol] |  | 143 °C |  |  |  |  | viability at 72 h, 10 µM [2]: 89%; viability at 72 h, 100 µM [2]: 28%; viability at 72 h, 250 µM [2]: 70%; viability at 72 h, 500 µM [2]: 16% |
| CNC(C)C1CCC(N)C(OC2C(N)CC(N)C(OC3OCC(C)(O)C(NC)C3O)C2O)O1 (stereo not drawn) [Gentamicin, reference compound] |  |  |  |  |  |  | MIC (Klebsiella pneumoniae): 2 µg/mL (≈ 4.19 µM); MIC (Escherichia coli): 2 µg/mL (≈ 4.19 µM) |
| C[C@H]1COc2c(N3CCN(C)CC3)c(F)cc3c(=O)c(C(=O)O)cn1c23 [Levofloxacin, reference compound] |  |  |  |  |  |  | MIC [3]: 1 µg/mL (≈ 2.77 µM); MIC (Enterococcus faecalis): 4 µg/mL (≈ 11.1 µM); MIC (Acinetobacter baumannii): 0.5 µg/mL (≈ 1.38 µM); MIC (Pseudomonas aeruginosa): 1 µg/mL (≈ 2.77 µM) |

Source: publication PMC8618934, “Synthesis, Crystal Structure, and Biological Evaluation of Novel 5-Hydroxymethylpyrimidines” (Materials, 2021)
